In data set [1] the test system is HXB II standard virus strain of HIV. Put plainly: HIV-1 replication in MT-2 cells scored by p24 antigen production. Format: cell-based. The source says: (§1) The MT-2 cell line, which cells are retrovirus transformed, was used. Virus applied to the MT-2 cells was the HXB II standard virus strain of HIV, isolated early in the 1980's (HIV Research Community Standard Reference Gene Sequence Data Base No. 135829). […] The main characteristic of the HXBII virus strain was to induce syncytia (SI) in certain cells such as MT-2 cells. This permitted assessment of the production of HIV by light microscopy, and thus, by titration of supernatant, the amount of infectious virus. Virus replication was determined as follows. Antiviral activity was assessed at day four or five after infection by scoring p24 antigen production by a commercial kit (DuPont) and by titration of the supernatants. Each well of each concentration of compound was titrated in a fourfold assay. MT-2 cells (4×10^5 per well) were added to all titration steps. After incubation, 100 μl of supplemented RPMI 1640 was added. After 5 d, all wells were scored for SI formation by light microscopy. The highest dilution (titer) displaying at least one SI were scored as positive, and the highest titers were averaged. […] Both MT-2 cell and PBM cell supernatants were titered on MT-2 cells. Testing the antiviral potency of various compositions was accomplished as follows. EGCg and EC were from Sigma (St. Louis, Mo.). Stock solutions of 100 mM were prepared in ethanol and serially diluted with water between 10^−3 molar and 10^−9 molar. […] Each experiment was in a fourfold assay.

For data set [2] the test system is unchanged. Put plainly: HIV-1 replication in MT-2 cells scored by titration of supernatants (syncytia). Format: cell-based.
Text: as §1

The subject of a further data set is MT-2 cells. Kind of data set: Toxicity to non-infected MT-2 cells by MTT utilization. Format: cell-based, human. On the procedure:
After 5 days, 20 μl of MTT stock solution (7.5 mg/ml) was added. […] Subsequently, 100 μl of 10% v/v Triton X100 in acidified isopropanol was added, and absorbance was determined at 550 nm with reference at 630 nm. The cytotoxic effect of EGCg was reflected by a decrease of the cell viability of mock infected cells in the presence of EGCg in comparison to mock infected cells without EGCg (OD 492 nm) was lower than the value of mock infected cells without EGCg. The cytotoxicity values are given as negative values. Positive values are recorded for a stimulatory effect on cell viability and/or an increase in cell proliferation. Testing the antiviral potency of various compositions was accomplished as follows. EGCg and EC were from Sigma (St. Louis, Mo.). Stock solutions of 100 mM were prepared in ethanol and serially diluted with water between 10^−3 molar and 10^−9 molar. […] Each experiment was in a fourfold assay.

A further data set deals with HIV-1 strain 952. Kind of data set: HIV-1 strain 952 infection of peripheral blood monocytes (p24 ELISA and syncytia titer on MT-2 cells). It counts as cell-based. The source says: FIG. 4: ELISA of supernatant p24 antigen of HIV-1 strain 952 (solid line; solid symbols) and HIV-1 titer based on number of syncytia observed by light microscopy on day 5 by titration of the day 4 supernatants in previously uninfected MT-2 cells (dashed line; open symbols) as a measure of mature virus production after 4 d with HIV strain 952 (City Laboratory, Hamburg) and mononuclear cells in peripheral blood (PBMCs)=peripheral blood monocytes prepared from healthy volunteers, as described herein below. Assays were in triplicate ±standard deviations.
As non-permanent cells, PBM cells were derived from freshly prepared pooled buffy coats from healthy blood donors. The PBM cells were isolated by Ficoll density gradient centrifugation and cultivated (stimulated with phytohemagglutinin) for 48 h in RPMI 1640 medium supplemented with 20% FBS and L-glutamine. PBMC tropic laboratory isolate No. 9.5 was used in the PBMC assays.
Virus replication was determined as follows. Antiviral activity was assessed at day four or five after infection by scoring p24 antigen production by a commercial kit (DuPont) and by titration of the supernatants. […] After 5 d, all wells were scored for SI formation by light microscopy. The highest dilution (titer) displaying at least one SI were scored as positive, and the highest titers were averaged. […]
For orientation: An ELISA detects its analyte on a solid surface through an enzyme-linked reagent.

A further data set relates to human rhinovirus HRV 14. Kind of data set: HRV-HeLa test system: cytopathic effect of human rhinovirus in HeLa cells. Format: cell-based. The note with it: HRV 14, HeLa, XTT test 72 h post infection; read-out: EC50 inhibition of CPE.
The next data set deals with HRV14. Kind of data set: HRV14-induced CPE in less sensitive (Berlin) HeLa strain, XTT test. Format: cell-based, human rhinovirus. As to conditions: for EC50: read-out: EC50 to prevent a cytopathic effect. How it is done:
Inhibition by CapsiVirol-T of the HRV cytopathic effect and effects on cell viability were tested using a HeLa strain which is less sensitive to tNOX inhibitors than certain other HeLa cells (Institute for Infectious Medicine, Berlin, Germany) (FIG. 17). In these studies, both CapsiVirol-T and EGCg, the principal green tea catechin, were tested. […] The test substance-containing medium was removed and the cells were infected with viruses at a multiplicity of infection of 0.1. For controls, virus infections were in the absence of the test substance. Mock infections were in the presence and absence of the test substance. Cell viability was measured in the XTT test directly at the days post infection (d.p.i.) indicated (FIG. 17). […] The cytopathic effect induced by a virus was determined from a decrease of cell viability (=decrease of […] nm in comparison to the mock infected control in the absence of the test substance). […] Cell viability was measured with the XTT test. Virus inoculation in the presence of CapsiVirol-T (without FCS) was for 30 min. […] Cell viability was monitored using the XTT test after 1, 2, and 3 days p.i. A control was at 1.5 h p.i. (in the figure 0 d p.i.) (FIG. 18). High OD values represent living cells, and low OD values represent cell damage. This damage is either induced by HRV14 (=cytopathic effect/CPE) or a toxic effect of the compound in mock-infected cells.
For orientation: Tetrazolium dyes change colour on reduction, which living cells bring about.

Data set [3] relates to TMEV/GDVII virus, TMEV/Bean virus. Format: cell-based, Theiler's murine encephalomyelitis virus. As to conditions: RAW macrophages.
Another data set deals with HRV14-induced vNOX. Kind of data set: Spectrophotometric vNOX activity assay (NADH oxidation) with HRV-infected MCF-10A cells. The note with it: read-out: EC50 inhibition of vNOX.

The source of these data is patent US20070077316A1, “Compositions and methods for treating and preventing virus infections” (priority 2005, published 2007).

Structures are written as SMILES. Where two headings read alike, the source gives them in different places. A value given as a limit tells only on which side of the number the result lay.

With `O=C(O[C@@H]1Cc2c(O)cc(O)cc2O[C@@H]1c1cc(O)c(O)c(O)c1)c1cc(O)c(O)c(O)c1` [EGCg, (−)-epigallocatechin-3-gallate], the “effect on p24 production” value in data set [1] (1 nM) is “no effect”. Besides, the “inhibition of virus production (p24) as compared to the virus control” value in data set [1] (10^−4 M, 4 or 5 d) came out at 93%. Also, in data set [1] (10^−5 M, 4 or 5 d), the “inhibition of virus replication (p24)” value amounted to 45%. Further, in data set [1] (10^−6 and 10^−7 M), the “inhibitory effect (p24)” value is reported as “approximately 20%”. For the same compound, the reduction of titers entry in data set [2] (1 nM) is recorded as “no reduction”; in data set [2] (10^−6 and 10^−7 M), “approximately 50%”; in data set [2] (10^−8 M), 40%. In data set [2] (10^−5 M), the “titrated virus, % of the virus control or EC control” value is on record as 20%. Further, the “reduction of MTT utilization” value in the data set with MT-2 cells (10^−4 M) was 90%. The “cytotoxic effects by MTT utilization” value in the data set on MT-2 cells (dilutions of less than 10^−5 M) is listed as “no cytotoxic effects”. Besides, the “infection (production of infective particles based on p24 assay)” value with HIV-1 strain 952 (10 μM, PBMC, strain 952) was “prevented”. For the same compound, the EC50 – broadly, the concentration that produces a half-maximal response – with HIV-1 strain 952 (PBMC supernatants, read-out: EC50 for inhibition of production of infective virus (syncytia formation after 5 days on MT-2 cells)) was below 1000 nM; in the data set with human rhinovirus HRV 14, around 1000 nM; in the data set on HRV14 (day 1) it was below 100 nM; in the data set on HRV14 (day 2) it was 100 nM; in the data set with HRV14-induced vNOX, 10 nM. Further, in the data set on HRV14, the “fold higher concentration compared to CapsiVirol-T required to achieve inhibition” value was at least 10 fold. In addition, in data set [3], the infection entry is reported as “prevented”.
